The target in one experiment is T1, human LXRβ (Homo sapiens, UniProt P55055).
T1 construct: biotin (biotinylated); made in house; host or cells: E. coli
T1 sequence (P55055 1-460): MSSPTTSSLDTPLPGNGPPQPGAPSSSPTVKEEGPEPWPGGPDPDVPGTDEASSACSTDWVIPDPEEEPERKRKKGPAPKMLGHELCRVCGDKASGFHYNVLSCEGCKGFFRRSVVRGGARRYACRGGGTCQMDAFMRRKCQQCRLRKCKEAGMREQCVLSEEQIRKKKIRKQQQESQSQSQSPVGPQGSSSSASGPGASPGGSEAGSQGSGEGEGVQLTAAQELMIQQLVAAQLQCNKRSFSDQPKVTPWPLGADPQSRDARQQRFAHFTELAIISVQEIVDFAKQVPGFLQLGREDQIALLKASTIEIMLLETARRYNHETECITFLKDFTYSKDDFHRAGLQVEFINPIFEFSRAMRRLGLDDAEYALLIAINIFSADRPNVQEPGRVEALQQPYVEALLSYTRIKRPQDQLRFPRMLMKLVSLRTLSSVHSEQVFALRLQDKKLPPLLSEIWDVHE
The experiment is described as follows: Ligand-binding test procedure for human LXRβ (3H T0901317 tracer, flash plates). Particulars: competition with 3H T0901317; read-out: hLXRb binding IC50. The protocol: I. Ligand-Binding Test Procedure for Human LXRβ.
• Buffer: 100 mM KCl, 100 mM TRIS (pH 7.4 at +4° C.), 8.6% glycerol, 0.1 mM PMSF*, 2 mM MTG*, 0.2% CHAPS (* not used in wash buffer) • Tracer: ^3H T0901317 • Receptor source: E. coli extracted from cells expressing biotinylated hLXRβ. Extract was made in a similar buffer as above, but with 50 mM TRIS.
• Washed streptavidin and coated flash plates with wash buffer. • Diluted receptor extract to give Bmax˜4000 cpm and add to the wells. • Wrapped the plates in aluminum foil and stored them at +4° C. overnight.
(§1) • Made a dilution series in DMSO of the test ligands. • Made a 5 nM solution of the radioactive tracer in buffer. • Mixed 2500 diluted tracer with 50 of the test ligand from each concentration of the dilution series. • Washed the receptor-coated flash plates. • Added 2000 per well of the ligand/radiolabel mixture to the receptor-coated flash plates. • Wrapped the plates in aluminum foil and incubate at +4° C. over night.
• Aspirated wells, and washed the flashed plates. Sealed the plate. • Measured the remaining radioactivity in the plate.

A further experiment deals with T2, human LXRα (Homo sapiens, UniProt Q13133).
T2 construct: biotin (biotinylated); made in house; host or cells: E. coli
T2 sequence (Q13133 1-447): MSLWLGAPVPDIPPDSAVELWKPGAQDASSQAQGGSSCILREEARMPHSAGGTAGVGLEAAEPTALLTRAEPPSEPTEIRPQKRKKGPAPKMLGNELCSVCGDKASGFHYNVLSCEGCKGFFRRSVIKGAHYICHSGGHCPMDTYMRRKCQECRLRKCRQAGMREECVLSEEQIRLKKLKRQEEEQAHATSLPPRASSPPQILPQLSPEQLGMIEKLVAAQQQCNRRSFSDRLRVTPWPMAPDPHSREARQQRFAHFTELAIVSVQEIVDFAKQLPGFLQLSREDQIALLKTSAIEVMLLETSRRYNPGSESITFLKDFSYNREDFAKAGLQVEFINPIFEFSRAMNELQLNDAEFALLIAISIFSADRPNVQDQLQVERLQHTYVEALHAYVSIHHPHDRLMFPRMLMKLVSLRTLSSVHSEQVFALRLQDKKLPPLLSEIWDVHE
In words: Ligand-binding test procedure for human LXRα (3H T0901317 tracer, flash plates). Particulars: competition with 3H T0901317; read-out: hLXRa binding IC50. The procedure:
II. Ligand-Binding Test Procedure for Human LXRa.
• Buffer: 100 mM KCl, 100 mM TRIS (pH 7.4 at +4° C.), 8.6% glycerol, 0.1 mM PMSF*, 2 mM MTG*, 0.2% CHAPS (* not used in wash buffer) • Tracer: ^3H T0901317 • Receptor source: E. coli extract from cells expressing biotinylated hLXRα. Extract was made in a similar buffer as above, but with 50 mM TRIS.
• Washed streptavidin and coated flash plates with wash buffer. • Diluted receptor extract to give Bmax˜4000 cpm and add to the wells. • Wrapped the plates in aluminum foil and stored them at +4° C. over night.
as §1
• Aspirated wells, and wash the flashed plates. Sealed the plate. • Measured the remaining radioactivity in the plate.

The subject of the next experiment is ABCA1 gene. The experiment is described as follows: Gene regulation by LXR (murine): ABCA1 gene regulation, mRNA by real-time PCR. The format is cell-based. Particulars: Mus musculus; for Emax: read-out: Agonism ABCA1. Background: In qPCR the cycle at which signal appears reflects the starting amount.

pEC50, pIC50: −log10 of the molar value.

By pIC50 is commonly meant −log10 of the IC50, conventionally taken in molar units. The term pEC50 denotes −log10 of the EC50, conventionally taken in molar units. Low values mean a large EC50, high ones a small EC50. For `N#CCCCS(=O)(=O)c1cccc(Oc2ccc(Cl)c(-c3ncnc4c(C(F)(F)F)cccc34)c2)c1` [Example 3, 4-[(3-{4-chloro-3-[8-(trifluoromethyl)quinazolin-4-yl]phenoxy}phenyl)sulfonyl]-butanenitrile], on human LXRβ, the pIC50 is 7.46. Moreover, the negative-log IC50 (pIC50) at human LXRα is 6.29. In the experiment with ABCA1 gene, the pEC50 is 5.57 and the Emax was 71%.
In the same order, the values of `N#CCCCS(=O)(=O)c1cccc(Oc2ccc(Cl)c(-c3ncnc4c(Cl)cccc34)c2)c1` [Example 4, 4-({3-[4-chloro-3-(8-chloroquinazolin-4-yl)phenoxy]phenyl}sulfonyl)butanenitrile] are 6.98, 5.74, 5.36 and 48%.
For `CS(=O)(=O)CCCS(=O)(=O)c1cccc(Oc2ccc(Cl)c(-c3ncnc4c(C(F)(F)F)cccc34)c2)c1` [Example 5, 4-[2-chloro-5-(3-{[3-(methylsulfonyl)propyl]sulfonyl}phenoxy)phenyl]-8-(trifluoro-methyl)quinazoline], the pIC50 on human LXRβ is 6.85. Besides, the pIC50 at human LXRα is 6.05. Moreover, in the experiment on ABCA1 gene, the pEC50 was 5.49 and the Emax is 51%.
With `NC(=O)CCCS(=O)(=O)c1cccc(Oc2ccc(Cl)c(-c3ncnc4c(Cl)cccc34)c2)c1` [Example 8, 4-({3-[4-chloro-3-(8-chloroquinazolin-4-yl)phenoxy]phenyl}sulfonyl)butanamide], at human LXRβ, the pIC50 was 6.90. Besides, the pIC50 on human LXRα is 5.88. Besides, in the experiment with ABCA1 gene, the pEC50 was 5.66 and the Emax was found to be 74%.
Take `NC(=O)CS(=O)(=O)c1cccc(Oc2ccc(Cl)c(-c3ncnc4c(C(F)(F)F)cccc34)c2)c1` [Example 14, 2-[(3-{4-chloro-3-[8-(trifluoromethyl)quinazoliyl]phenoxy}phenyl)sulfonyl]-acetamide]: the pIC50 at human LXRβ is 7.25; at human LXRα, 6.15. Also, the pEC50 in the experiment on ABCA1 gene was 5.86. In addition, the Emax in the experiment on ABCA1 gene amounted to 95%.
The corresponding values for `O=C(O)CS(=O)(=O)c1cccc(Oc2ccc(Cl)c(-c3ncnc4c(C(F)(F)F)cccc34)c2)c1` [Example 15, [(3-{4-chloro-3-[8-(trifluoromethyl)quinazolin-4-yl]phenoxy}phenyl)sulfonyl]acetic acid] are 7.72, 5.99, 5.53 and 51%.
In the same order, the values of `CNS(=O)(=O)c1cccc(Oc2ccc(Cl)c(-c3ncnc4c(Cl)cccc34)c2)c1` [Example 16, 3-[4-chloro-3-(8-chloroquinazolin-4-yl)phenoxy]-N-methylbenzenesulfonamide] are 7.96, 6.84, 6.59 and 98%.
The corresponding values for `NS(=O)(=O)c1cccc(Oc2ccc(Cl)c(-c3ncnc4c(Cl)cccc34)c2)c1` [Example 17, 3-[4-chloro-3-(8-chloroquinazolin-4-yl)phenoxy]benzenesulfonamide] are 6.82, 5.77, 5.83 and 74%.
In the case of `CNS(=O)(=O)c1cccc(Oc2ccc(Cl)c(-c3ncnc4c(C(F)(F)F)cccc34)c2)c1` [Example 18], the pIC50 on human LXRβ was 8.40; at human LXRα, 7.09. Besides, the pEC50 with ABCA1 gene is 7.07. Besides, the Emax in the experiment on ABCA1 gene was found to be 94%.
For the molecule `NS(=O)(=O)c1cccc(Oc2ccc(Cl)c(-c3ncnc4c(C(F)(F)F)cccc34)c2)c1` [Example 19, 3-{4-chloro-3-[8-(trifluoromethyl)quinazolin-4-yl]phenoxy}benzenesulfonamide], at human LXRβ, the pIC50 is 7.31. Further, at human LXRα, the pIC50 is 6.24. Also, in the experiment on ABCA1 gene, the pEC50 is 6.66 and the Emax turned out to be 95%.
For `NCCCCS(=O)(=O)c1cccc(Oc2ccc(F)c(-c3ncnc4c(Cl)cccc34)c2)c1` [Example 45, 4-({3-[3-(8-chloroquinazolin-4-yl)-4-fluorophenoxy]phenyl}sulfonyl)butan-1-amine], the pIC50 at human LXRβ is 5.73; on human LXRα, 4.94.
On to `NCCCS(=O)(=O)c1cccc(Oc2ccc(F)c(-c3ncnc4c(Cl)cccc34)c2)c1` [Example 46, 3-({3-[3-(8-chloroquinazolin-4-yl)-4-fluorophenoxy]phenyl}sulfonyl)propan-1-amine], for which the negative-log IC50 (pIC50) at human LXRβ is 6.53; on human LXRα, 5.09.
As for `N#CCCCS(=O)(=O)c1cccc(Oc2ccc(F)c(-c3ncnc4c(Cl)cccc34)c2)c1` [Example 47, 4-({3-[3-(8-chloroquinazolin-4-yl)-4-fluorophenoxy]phenyl}sulfonyl)butanenitrile], the values for the negative-log IC50 (pIC50) on human LXRβ and on human LXRα were 6.56 and 5.40, respectively.
The corresponding values for `CS(=O)(=O)NCCCS(=O)(=O)c1cccc(Oc2ccc(F)c(-c3ncnc4c(Cl)cccc34)c2)c1` [Example 50, N-[3-({3-[3-(8-chloroquinazolin-4-yl)-4-fluorophenoxy]phenyl}sulfonyl)propyl]methane-sulfonamide] are 6.33 and 5.20.
For the molecule `CS(=O)(=O)NCCCCS(=O)(=O)c1cccc(Oc2ccc(F)c(-c3ncnc4c(Cl)cccc34)c2)c1` [Example 51, N-[4-({3-[3-(8-chloroquinazolin-4-yl)-4-fluorophenoxy]phenyl}sulfonyl)butyl]methane-sulfonamide], the pIC50 on human LXRβ was 6.35; on human LXRα it was 5.31.
In the same order, the values of `NC(=O)CCCCS(=O)(=O)c1cccc(Oc2ccc(F)c(-c3ncnc4c(Cl)cccc34)c2)c1` [Example 53, 5-({3-[3-(8-chloroquinazolin-4-yl)-4-fluorophenoxy]phenyl}sulfonyl)pentanamide] are 6.49 and 3.63.
In the same order, the values of `NC(=O)CCCS(=O)(=O)c1cccc(Oc2ccc(F)c(-c3ncnc4c(Cl)cccc34)c2)c1` [Example 54, 4-({3-[3-(8-chloroquinazolin-4-yl)-4-fluorophenoxy]phenyl}sulfonyl)butanamide] are 6.23 and 5.18.
For `Cc1nc(-c2cc(Oc3cccc(S(=O)(=O)CCCC#N)c3)ccc2Cl)c2cccc(C(F)(F)F)c2n1` [Example 59, 4-[(3-{4-chloro-3-[2-methyl-8-(trifluoromethyl)quinazolin-4-yl]phenoxy}phenyl)sulfonyl]-butanenitrile], the pIC50 at human LXRβ was 6.82; on human LXRα, 5.65.
The corresponding values for `Cc1nc(-c2cc(Oc3cccc(S(=O)(=O)CCCNS(C)(=O)=O)c3)ccc2Cl)c2cccc(C(F)(F)F)c2n1` [Example 62, N-{3-[(3-{4-chloro-3-[2-methyl-8-(trifluoromethyl)quinazolin-4-yl]phenoxy}phenyl)sulfonyl]-propyl}methanesulfonamide] are 6.46 and 5.15.
The corresponding values for `Cc1nc(-c2cc(Oc3cccc(S(=O)(=O)CCCCNS(C)(=O)=O)c3)ccc2Cl)c2cccc(C(F)(F)F)c2n1` [Example 63, N-{4-[(3-{4-chloro-3-[2-methyl-8-(trifluoromethyl)quinazolin-4-yl]phenoxy}phenyl)sulfonyl]-butyl}methanesulfonamide] are 6.49 and 5.34.

For the origin of these results see patent US20100184786A1, “Polar Quinazolines” (Wyeth LLC, priority 2008, published 2010).
